# Test results as given in PubChem BioAssay AID1963826 (Molecular Pharmacology Branch, DTP, NCI, 2024).
# pIC50: −log10 of the molar value.
# System: 926638-142-R-J1-PDC complex spheroid viability
# Test: Anticancer human tumor 926638-142-R-J1-PDC patient-derived endometrial carcinoma cell line growth inhibition [POLQ]
# Details: for pIC50: curve of first compound; for viability, T/C: stronger effect = lower value
# How it was run: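 Three-cell-type spheroids modelling solid tumor plus stroma served as the readout system; POL inhibitors were tested individually and in combination, concentration ranges set by clinical Cmax where known.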
# 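Also: spheroids exposed to drugs for one week before readout.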
# 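For viability, T/C in this document: percent viability relative to DMSO vehicle control wells set as 100%.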
structure (smiles),measurement,setting,value
CC(=O)O[C@H]1C(=O)[C@@]2(C)[C@H]([C@H](OC(=O)c3ccccc3)[C@]3(O)C[C@H](OC(=O)[C@H](O)[C@@H](NC(=O)c4ccccc4)c4ccccc4)C(C)=C1C3(C)C)[C@]1(OC(C)=O)CO[C@@H]1C[C@@H]2O + Cc1cccc(N(C)C(=O)C2C(O)CCN2c2nc(C)cc(C(F)(F)F)c2C#N)c1,pIC50,second compound 0.0316 µM,6.18
same,pIC50,second compound 0.1 µM,< 5.52
same,pIC50,second compound 0.316 µM,6.10
same,pIC50,second compound 1 µM,5.62
same,pIC50,second compound 3.16 µM,5.89
same,pIC50,second compound 10 µM,6.09
same,"viability, T/C","second compound 0.0316 µM, first compound 0.00949 µM",88.1%
same,"viability, T/C","second compound 0.0316 µM, first compound 0.03 µM",62.9%
same,"viability, T/C","second compound 0.0316 µM, first compound 0.0949 µM",56.8%
same,"viability, T/C","second compound 0.0316 µM, first compound 0.3 µM",56.1%
same,"viability, T/C","second compound 0.0316 µM, first compound 0.949 µM",53.9%
same,"viability, T/C","second compound 0.0316 µM, first compound 3 µM",41.5%
same,"viability, T/C","second compound 0.1 µM, first compound 0.00949 µM",87.5%
same,"viability, T/C","second compound 0.1 µM, first compound 0.03 µM",65.8%
same,"viability, T/C","second compound 0.1 µM, first compound 0.0949 µM",62.1%
same,"viability, T/C","second compound 0.1 µM, first compound 0.3 µM",52.4%
same,"viability, T/C","second compound 0.1 µM, first compound 0.949 µM",58.3%
same,"viability, T/C","second compound 0.1 µM, first compound 3 µM",51.4%
same,"viability, T/C","second compound 0.316 µM, first compound 0.00949 µM",79.2%
same,"viability, T/C","second compound 0.316 µM, first compound 0.03 µM",77%
same,"viability, T/C","second compound 0.316 µM, first compound 0.0949 µM",66.8%
same,"viability, T/C","second compound 0.316 µM, first compound 0.3 µM",56.1%
same,"viability, T/C","second compound 0.316 µM, first compound 0.949 µM",50.5%
same,"viability, T/C","second compound 0.316 µM, first compound 3 µM",43.2%
same,"viability, T/C","second compound 1 µM, first compound 0.00949 µM",76.3%
same,"viability, T/C","second compound 1 µM, first compound 0.03 µM",68.6%
same,"viability, T/C","second compound 1 µM, first compound 0.0949 µM",61.7%
same,"viability, T/C","second compound 1 µM, first compound 0.3 µM",57.6%
same,"viability, T/C","second compound 1 µM, first compound 0.949 µM",67.2%
same,"viability, T/C","second compound 1 µM, first compound 3 µM",43.1%
same,"viability, T/C","second compound 3.16 µM, first compound 0.00949 µM",70.6%
same,"viability, T/C","second compound 3.16 µM, first compound 0.03 µM",61%
same,"viability, T/C","second compound 3.16 µM, first compound 0.0949 µM",55.4%
same,"viability, T/C","second compound 3.16 µM, first compound 0.3 µM",55.4%
same,"viability, T/C","second compound 3.16 µM, first compound 0.949 µM",57%
same,"viability, T/C","second compound 3.16 µM, first compound 3 µM",43.8%
same,"viability, T/C","second compound 10 µM, first compound 0.00949 µM",72.8%
same,"viability, T/C","second compound 10 µM, first compound 0.03 µM",63.2%
same,"viability, T/C","second compound 10 µM, first compound 0.0949 µM",55.9%
same,"viability, T/C","second compound 10 µM, first compound 0.3 µM",57.5%
same,"viability, T/C","second compound 10 µM, first compound 0.949 µM",50.8%
same,"viability, T/C","second compound 10 µM, first compound 3 µM",44.2%
